Results published in article PMC9954146, “Anti-Leukaemic Activity of Rilpivirine Is Mediated by Aurora A Kinase Inhibition” (Cancers, 2023).

Key:
Assay in all cases: Kinase panel
Type in all cases: biochemical
Conditions in all cases: read-out: % Residual Activity
ACK1(h) = molecular target: T1, ACK1(h) (Homo sapiens, UniProt Q07912)
T1 construct: purchased Eurofins (KinaseProfiler)
Method in brief: (§1)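 Cheng–Prusoff conversion of IC50 to Ki; IC50s from radioisotope-based assays at Km(ATP). Kinome-wide rilpivirine profiling.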

Abl (Q252H) (h) = molecular target: T2, Abl (Q252H) (h) (Homo sapiens, UniProt P00519, Q252H)
T2 construct: purchased Eurofins (KinaseProfiler)
Method in brief: as §1

Abl(m) = molecular target: T3, Abl(m) (Mus musculus, UniProt P00520)
T3 construct: purchased Eurofins (KinaseProfiler)
Method in brief: as §1

Aurora-A(h) = molecular target: T4, Aurora-A(h) (Homo sapiens, UniProt O14965)
T4 construct: purchased Eurofins (KinaseProfiler)
Method in brief: as §1

BIKe(h) = molecular target: T5, BIKe(h) (Homo sapiens, UniProt Q9NSY1)
T5 construct: purchased Eurofins (KinaseProfiler)
Method in brief: as §1

CDKL3(h) = molecular target: T6, CDKL3(h) (Homo sapiens, UniProt Q8IVW4)
T6 construct: purchased Eurofins (KinaseProfiler)
Method in brief: as §1

CK2(h) = molecular target: T7, CK2(h) (Homo sapiens, UniProt P68400)
T7 construct: purchased Eurofins (KinaseProfiler)
Method in brief: as §1

CK2α1(h) = molecular target: T8, CK2α1(h) (Homo sapiens, UniProt P68400)
T8 construct: purchased Eurofins (KinaseProfiler)
Method in brief: as §1

DDR1(h) = molecular target: T9, DDR1(h) (Homo sapiens, UniProt Q08345)
T9 construct: purchased Eurofins (KinaseProfiler)
Method in brief: as §1

DDR2(h) = molecular target: T10, DDR2(h) (Homo sapiens, UniProt Q16832)
T10 construct: purchased Eurofins (KinaseProfiler)
Method in brief: as §1

EGFR(L858R)(h) = molecular target: T11, EGFR(L858R)(h) (Homo sapiens, UniProt P00533, L858R)
T11 construct: purchased Eurofins (KinaseProfiler)
Method in brief: as §1

EphA5(h) = molecular target: T12, EphA5(h) (Homo sapiens, UniProt P54756)
T12 construct: purchased Eurofins (KinaseProfiler)
Method in brief: as §1

Flt3(D835Y)(h) = molecular target: T13, Flt3(D835Y)(h) (Homo sapiens, UniProt P36888, D835Y)
T13 construct: purchased Eurofins (KinaseProfiler)
Method in brief: as §1

Fms(Y969C)(h) = molecular target: T14, Fms(Y969C)(h) (Homo sapiens, UniProt P07333, Y969C)
T14 construct: purchased Eurofins (KinaseProfiler)
Method in brief: as §1

Fyn(h) = molecular target: T15, Fyn(h) (Homo sapiens, UniProt P06241)
T15 construct: purchased Eurofins (KinaseProfiler)
Method in brief: as §1

IR(h) = molecular target: T16, IR(h) (Homo sapiens, UniProt P06213)
T16 construct: purchased Eurofins (KinaseProfiler)
Method in brief: as §1

LATS1(h) = molecular target: T17, LATS1(h) (Homo sapiens, UniProt O95835)
T17 construct: purchased Eurofins (KinaseProfiler)
Method in brief: as §1

LKB1(h) = molecular target: T18, LKB1(h) (Homo sapiens, UniProt Q15831)
T18 construct: purchased Eurofins (KinaseProfiler)
Method in brief: as §1

Lck(h) activated = molecular target: T19, Lck(h) activated (Homo sapiens, UniProt P06239)
T19 construct: purchased Eurofins (KinaseProfiler)
Method in brief: as §1

MEK1(h) = molecular target: T20, MEK1(h) (Homo sapiens, UniProt Q02750)
T20 construct: purchased Eurofins (KinaseProfiler)
Method in brief: as §1

MLK2(h) = molecular target: T21, MLK2(h) (Homo sapiens, UniProt Q02779)
T21 construct: purchased Eurofins (KinaseProfiler)
Method in brief: as §1

MST2(h) = molecular target: T22, MST2(h) (Homo sapiens, UniProt Q13188)
T22 construct: purchased Eurofins (KinaseProfiler)
Method in brief: as §1

Met(M1268T)(h) = molecular target: T23, Met(M1268T)(h) (Homo sapiens, UniProt P08581, M1250T)
T23 construct: purchased Eurofins (KinaseProfiler)
Method in brief: as §1

[1] = molecular target: PI3 Kinase (p110a(E542K)/p85a)(h) (Homo sapiens, UniProt P42336, E542K)
Method in brief: as §1

[2] = molecular target: PI3 Kinase (p110a(E545K)/p85a)(h) (Homo sapiens, UniProt P42336, E545K)
Method in brief: as §1

PKCα(h) = molecular target: T24, PKCα(h) (Homo sapiens, UniProt P17252)
T24 construct: purchased Eurofins (KinaseProfiler)
Method in brief: as §1

PKCβII(h) = molecular target: T25, PKCβII(h) (Homo sapiens, UniProt P05771)
T25 construct: purchased Eurofins (KinaseProfiler)
Method in brief: as §1

PrKX(h) = molecular target: T26, PrKX(h) (Homo sapiens, UniProt P51817)
T26 construct: purchased Eurofins (KinaseProfiler)
Method in brief: as §1

Ret (V804L)(h) = molecular target: T27, Ret (V804L)(h) (Homo sapiens, UniProt P07949, V804L)
T27 construct: purchased Eurofins (KinaseProfiler)
Method in brief: as §1

SIK(h) = molecular target: T28, SIK(h) (Homo sapiens, UniProt P57059)
T28 construct: purchased Eurofins (KinaseProfiler)
Method in brief: as §1

Syk(h) = molecular target: T29, Syk(h) (Homo sapiens, UniProt P43405)
T29 construct: purchased Eurofins (KinaseProfiler)
Method in brief: as §1

TLK2(h) = molecular target: T30, TLK2(h) (Homo sapiens, UniProt Q86UE8)
T30 construct: purchased Eurofins (KinaseProfiler)
Method in brief: as §1

TSSK4(h) = molecular target: T31, TSSK4(h) (Homo sapiens, UniProt Q6SA08)
T31 construct: purchased Eurofins (KinaseProfiler)
Method in brief: as §1

Tec(h) activated = molecular target: T32, Tec(h) activated (Homo sapiens, UniProt P42680)
T32 construct: purchased Eurofins (KinaseProfiler)
Method in brief: as §1

ULK1(h) = molecular target: T33, ULK1(h) (Homo sapiens, UniProt O75385)
T33 construct: purchased Eurofins (KinaseProfiler)
Method in brief: as §1

ULK3(h) = molecular target: T34, ULK3(h) (Homo sapiens, UniProt Q6PHR2)
T34 construct: purchased Eurofins (KinaseProfiler)
Method in brief: as §1

VRK2(h) = molecular target: T35, VRK2(h) (Homo sapiens, UniProt Q86Y07)
T35 construct: purchased Eurofins (KinaseProfiler)
Method in brief: as §1

ZIPK(h) = molecular target: T36, ZIPK(h) (Homo sapiens, UniProt O43293)
T36 construct: purchased Eurofins (KinaseProfiler)
Method in brief: as §1

T4 sequence (O14965 whole entry): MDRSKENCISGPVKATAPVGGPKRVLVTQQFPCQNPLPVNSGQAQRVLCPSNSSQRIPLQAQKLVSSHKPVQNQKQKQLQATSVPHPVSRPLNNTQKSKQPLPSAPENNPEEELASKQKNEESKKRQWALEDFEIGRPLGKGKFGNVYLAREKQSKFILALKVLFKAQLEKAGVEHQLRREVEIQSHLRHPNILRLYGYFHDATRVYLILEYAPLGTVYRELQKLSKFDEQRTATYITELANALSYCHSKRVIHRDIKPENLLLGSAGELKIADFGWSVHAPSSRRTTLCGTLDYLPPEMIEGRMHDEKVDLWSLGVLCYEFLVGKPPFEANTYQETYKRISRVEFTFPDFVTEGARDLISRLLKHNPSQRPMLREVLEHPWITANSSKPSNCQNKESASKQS
T17 sequence (O95835 whole entry): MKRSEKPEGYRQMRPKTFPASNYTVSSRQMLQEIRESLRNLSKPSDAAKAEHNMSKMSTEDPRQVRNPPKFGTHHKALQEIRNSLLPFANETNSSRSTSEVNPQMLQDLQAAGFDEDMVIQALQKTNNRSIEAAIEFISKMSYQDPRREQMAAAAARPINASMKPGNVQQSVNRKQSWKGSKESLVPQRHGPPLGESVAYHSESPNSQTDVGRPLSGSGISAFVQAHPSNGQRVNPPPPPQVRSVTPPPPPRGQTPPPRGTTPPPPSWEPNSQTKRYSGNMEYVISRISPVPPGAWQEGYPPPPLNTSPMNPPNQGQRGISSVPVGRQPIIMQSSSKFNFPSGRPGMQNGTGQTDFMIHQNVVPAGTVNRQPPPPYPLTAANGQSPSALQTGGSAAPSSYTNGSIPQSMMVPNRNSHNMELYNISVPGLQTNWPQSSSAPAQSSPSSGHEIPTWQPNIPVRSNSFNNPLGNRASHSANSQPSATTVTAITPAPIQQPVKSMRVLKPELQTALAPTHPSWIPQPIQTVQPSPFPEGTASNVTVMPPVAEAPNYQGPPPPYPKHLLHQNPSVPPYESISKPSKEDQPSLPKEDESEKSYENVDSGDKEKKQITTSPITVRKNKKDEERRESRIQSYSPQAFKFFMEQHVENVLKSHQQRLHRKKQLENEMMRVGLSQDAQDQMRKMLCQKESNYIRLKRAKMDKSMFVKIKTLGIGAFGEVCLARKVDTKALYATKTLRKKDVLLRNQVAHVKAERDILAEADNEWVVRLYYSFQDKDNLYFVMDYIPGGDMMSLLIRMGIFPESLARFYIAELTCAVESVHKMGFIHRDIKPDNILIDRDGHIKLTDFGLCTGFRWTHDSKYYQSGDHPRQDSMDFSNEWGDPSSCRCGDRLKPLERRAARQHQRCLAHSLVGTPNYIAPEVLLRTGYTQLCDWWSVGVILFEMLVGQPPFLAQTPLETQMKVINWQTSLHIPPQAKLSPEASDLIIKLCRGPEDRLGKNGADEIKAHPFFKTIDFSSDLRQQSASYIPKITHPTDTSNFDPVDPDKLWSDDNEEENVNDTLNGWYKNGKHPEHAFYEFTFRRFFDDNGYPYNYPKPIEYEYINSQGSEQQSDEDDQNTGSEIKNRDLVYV
T20 sequence (Q02750 whole entry): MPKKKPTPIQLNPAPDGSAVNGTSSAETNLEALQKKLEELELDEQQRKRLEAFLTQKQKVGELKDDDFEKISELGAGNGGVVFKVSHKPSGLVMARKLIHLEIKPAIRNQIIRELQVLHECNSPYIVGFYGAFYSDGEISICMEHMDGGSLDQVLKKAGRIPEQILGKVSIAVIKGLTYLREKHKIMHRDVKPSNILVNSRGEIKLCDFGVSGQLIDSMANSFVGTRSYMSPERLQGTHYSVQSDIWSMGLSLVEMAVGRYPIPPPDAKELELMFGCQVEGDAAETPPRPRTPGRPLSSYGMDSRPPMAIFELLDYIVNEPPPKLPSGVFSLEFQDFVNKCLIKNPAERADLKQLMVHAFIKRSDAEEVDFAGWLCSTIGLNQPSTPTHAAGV
T36 sequence (O43293 whole entry): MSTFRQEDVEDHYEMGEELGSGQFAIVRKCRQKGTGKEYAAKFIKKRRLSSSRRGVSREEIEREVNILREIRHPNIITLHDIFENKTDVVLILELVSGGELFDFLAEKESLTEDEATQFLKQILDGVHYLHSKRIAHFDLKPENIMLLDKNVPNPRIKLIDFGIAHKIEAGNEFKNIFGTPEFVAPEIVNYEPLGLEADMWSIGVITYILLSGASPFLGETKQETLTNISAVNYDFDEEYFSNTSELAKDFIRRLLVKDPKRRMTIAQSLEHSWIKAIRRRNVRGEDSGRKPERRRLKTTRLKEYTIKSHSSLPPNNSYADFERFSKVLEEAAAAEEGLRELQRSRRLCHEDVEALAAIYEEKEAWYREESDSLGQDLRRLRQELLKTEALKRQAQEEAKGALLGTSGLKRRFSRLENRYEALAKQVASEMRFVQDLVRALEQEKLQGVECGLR
T14 sequence (P07333 20-972 Y969C): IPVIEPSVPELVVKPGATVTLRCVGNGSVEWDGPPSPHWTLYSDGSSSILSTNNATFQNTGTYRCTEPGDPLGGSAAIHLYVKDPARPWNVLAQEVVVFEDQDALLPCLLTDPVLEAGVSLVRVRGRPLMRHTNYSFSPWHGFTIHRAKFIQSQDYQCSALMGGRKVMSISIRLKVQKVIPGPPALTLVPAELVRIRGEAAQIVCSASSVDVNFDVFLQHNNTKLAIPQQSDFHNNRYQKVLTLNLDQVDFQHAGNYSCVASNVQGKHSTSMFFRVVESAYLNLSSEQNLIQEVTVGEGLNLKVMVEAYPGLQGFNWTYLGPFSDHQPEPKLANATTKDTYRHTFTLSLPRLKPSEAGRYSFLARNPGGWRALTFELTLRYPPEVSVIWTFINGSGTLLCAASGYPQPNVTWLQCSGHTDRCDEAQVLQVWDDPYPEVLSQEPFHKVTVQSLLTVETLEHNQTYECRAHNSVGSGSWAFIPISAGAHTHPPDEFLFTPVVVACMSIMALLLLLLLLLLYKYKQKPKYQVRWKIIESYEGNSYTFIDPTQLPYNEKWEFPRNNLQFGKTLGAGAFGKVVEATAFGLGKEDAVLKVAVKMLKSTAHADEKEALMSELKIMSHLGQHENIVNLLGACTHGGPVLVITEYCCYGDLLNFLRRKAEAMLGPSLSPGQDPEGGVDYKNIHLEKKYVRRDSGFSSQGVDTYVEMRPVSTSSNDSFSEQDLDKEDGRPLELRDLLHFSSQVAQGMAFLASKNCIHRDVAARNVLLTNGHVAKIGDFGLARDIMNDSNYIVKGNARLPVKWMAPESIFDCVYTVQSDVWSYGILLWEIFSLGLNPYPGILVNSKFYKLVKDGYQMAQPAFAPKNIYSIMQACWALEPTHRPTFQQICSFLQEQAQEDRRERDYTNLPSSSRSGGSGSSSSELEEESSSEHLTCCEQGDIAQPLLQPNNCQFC
T32 sequence (P42680 whole entry): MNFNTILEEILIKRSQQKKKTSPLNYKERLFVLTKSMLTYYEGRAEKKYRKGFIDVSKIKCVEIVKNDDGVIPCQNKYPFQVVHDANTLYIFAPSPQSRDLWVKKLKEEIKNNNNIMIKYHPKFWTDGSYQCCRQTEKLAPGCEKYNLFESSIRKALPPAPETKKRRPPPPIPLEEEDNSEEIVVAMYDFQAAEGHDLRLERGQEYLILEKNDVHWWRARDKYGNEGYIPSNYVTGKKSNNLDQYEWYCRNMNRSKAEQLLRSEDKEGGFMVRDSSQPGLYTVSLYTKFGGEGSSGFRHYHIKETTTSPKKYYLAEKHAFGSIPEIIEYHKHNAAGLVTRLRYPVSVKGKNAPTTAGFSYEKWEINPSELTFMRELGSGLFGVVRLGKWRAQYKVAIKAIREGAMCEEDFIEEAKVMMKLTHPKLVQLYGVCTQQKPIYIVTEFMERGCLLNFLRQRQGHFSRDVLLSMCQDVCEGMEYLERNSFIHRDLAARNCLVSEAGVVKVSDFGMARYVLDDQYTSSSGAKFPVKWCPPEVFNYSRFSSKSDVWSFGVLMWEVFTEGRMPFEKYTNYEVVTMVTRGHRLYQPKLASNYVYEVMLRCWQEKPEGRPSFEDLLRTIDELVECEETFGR
T26 sequence (P51817 whole entry): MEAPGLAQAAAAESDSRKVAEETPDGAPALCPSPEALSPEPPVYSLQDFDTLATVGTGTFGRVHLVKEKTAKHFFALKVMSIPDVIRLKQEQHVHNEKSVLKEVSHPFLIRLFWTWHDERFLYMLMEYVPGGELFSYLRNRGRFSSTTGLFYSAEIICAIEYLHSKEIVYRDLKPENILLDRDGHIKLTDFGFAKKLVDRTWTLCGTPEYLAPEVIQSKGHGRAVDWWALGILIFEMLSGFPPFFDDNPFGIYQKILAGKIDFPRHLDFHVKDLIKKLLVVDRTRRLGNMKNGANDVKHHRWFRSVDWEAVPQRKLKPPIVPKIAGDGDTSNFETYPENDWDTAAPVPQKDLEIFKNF
T7 sequence (P68400 whole entry): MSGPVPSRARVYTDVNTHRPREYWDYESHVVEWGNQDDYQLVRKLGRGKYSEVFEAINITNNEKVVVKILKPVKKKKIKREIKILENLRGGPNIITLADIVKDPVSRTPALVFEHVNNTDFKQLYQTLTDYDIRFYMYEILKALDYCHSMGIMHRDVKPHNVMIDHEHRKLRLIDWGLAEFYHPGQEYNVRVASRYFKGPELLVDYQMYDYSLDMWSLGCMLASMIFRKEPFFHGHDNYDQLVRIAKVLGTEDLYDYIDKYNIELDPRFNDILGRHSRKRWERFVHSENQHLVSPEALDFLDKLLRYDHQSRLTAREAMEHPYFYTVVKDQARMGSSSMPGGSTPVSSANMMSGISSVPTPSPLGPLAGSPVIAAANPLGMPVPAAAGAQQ
T7 sequence (P67870 whole entry partner): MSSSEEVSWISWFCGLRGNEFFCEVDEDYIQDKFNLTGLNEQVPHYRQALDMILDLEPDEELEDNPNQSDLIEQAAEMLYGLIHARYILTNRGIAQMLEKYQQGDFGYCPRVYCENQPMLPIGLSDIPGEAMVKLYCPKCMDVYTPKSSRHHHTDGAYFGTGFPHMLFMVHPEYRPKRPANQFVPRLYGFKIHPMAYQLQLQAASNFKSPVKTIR
T8 sequence (P68400 whole entry): as the sequence (P68400 whole entry) above

Molecule `Cc1cc(/C=C/C#N)cc(C)c1Nc1ccnc(Nc2ccc(C#N)cc2)n1` [rilpivirine, (E)-4-((4-((4-(2-cyanoethenyl)-2,6-dimethylphenyl)amino)pyrimidin-2-yl)amino)benzonitrile] has a remaining activity at 1 µM (ACK1(h)) of 97%, a remaining activity at 1 µM (Abl (Q252H) (h)) of 94% and a remaining activity at 1 µM (Abl(m)) of 63%. The remaining activity at 1 µM (Aurora-A(h)) was 14%, the remaining activity at 1 µM (BIKe(h)) was 56% and the remaining activity at 1 µM (CDKL3(h)) was 58%. For the same molecule, the remaining activity at 1 µM (CK2(h)) was 90%, the remaining activity at 1 µM (CK2α1(h)) was 101% and the remaining activity at 1 µM (DDR1(h)) was 46%. It also gave a remaining activity at 1 µM (DDR2(h)) of 82%, a remaining activity at 1 µM (EGFR(L858R)(h)) of 90% and a remaining activity at 1 µM (EphA5(h)) of 79%. It also gave a remaining activity at 1 µM (Flt3(D835Y)(h)) of 94%, a remaining activity at 1 µM (Fms(Y969C)(h)) of 83% and a remaining activity at 1 µM (Fyn(h)) of 49%. It also gave a remaining activity at 1 µM (IR(h)) of 111%, a remaining activity at 1 µM (LATS1(h)) of 86% and a remaining activity at 1 µM (LKB1(h)) of 87%. The remaining activity at 1 µM (Lck(h) activated) was 54%, the remaining activity at 1 µM (MEK1(h)) was 101% and the remaining activity at 1 µM (MLK2(h)) was 85%. It also gave a remaining activity at 1 µM (MST2(h)) of 80%, a remaining activity at 1 µM (Met(M1268T)(h)) of 109% and a remaining activity at 1 µM [1] of 97%. The remaining activity at 1 µM [2] was 98%, the remaining activity at 1 µM (PKCα(h)) was 83% and the remaining activity at 1 µM (PKCβII(h)) was 94%. It also gave a remaining activity at 1 µM (PrKX(h)) of 97%, a remaining activity at 1 µM (Ret (V804L)(h)) of 91% and a remaining activity at 1 µM (SIK(h)) of 66%. The remaining activity at 1 µM (Syk(h)) was 79%, the remaining activity at 1 µM (TLK2(h)) was 115% and the remaining activity at 1 µM (TSSK4(h)) was 127%. For the same molecule, the remaining activity at 1 µM (Tec(h) activated) was 105%, the remaining activity at 1 µM (ULK1(h)) was 85% and the remaining activity at 1 µM (ULK3(h)) was 94%. The remaining activity at 1 µM (VRK2(h)) was 88% and the remaining activity at 1 µM (ZIPK(h)) was 85%.
